Source: patent US20030134859A1 (SANKYO COMPANY, LIMITED, priority 2000, published 2003)
Like-named read-outs stand apart in the source and are kept apart here.

Test system: leptin production
Experiment: Enhancing activity for leptin production in adipocytes (ELISA)
Format: cell-based, rat
Details: leptin concentration as % of control group; for activity at 1 µM / activity at 0.001 µM / activity at 0.01 µM / activity at 0.1 µM: Rattus norvegicus, Adipocyte, read-out: Facilitating activity to produce leptin; for activity at 0.001 µM: 1 nm; for activity at 0.01 µM: 10 nm
Method in brief: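 Leptin release, quantified by rat leptin ELISA, expressed as percent of 0.1% DMSO control after 24 h at 37 °C. Cells were floating adipocytes isolated by collagenase digestion of epididymal fat from male 6-week Wistar Imamichi rats; compound tested at 1 nM–1 µM final.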

Structure (SMILES)	activity at 1 µM (24 h) [%]	activity at 0.01 µM (24 h) [%]	activity at 0.1 µM (24 h, 100 nm) [%]	activity at 0.1 µM (100 nm, 24 hr) [%]	other results
N#Cc1cccc(NC(=O)c2cc([N+](=O)[O-])ccc2Cl)c1 [Example 21, N-(3-Cyanophenyl)-(2-chloro-5-nitrophenyl)carboxamide]	130	120	150		activity at 0.001 µM (24 h): 116%
O=C(Nc1ccc([N+](=O)[O-])cc1)c1cc([N+](=O)[O-])ccc1Cl [Example 23, N-(4-Nitrophenyl)-(2-chloro-5-nitrophenyl)carboxamide]				158	activity at 1 µM (24 hr): 110%; activity at 0.001 µM (24 hr): 134%; activity at 0.01 µM (24 hr): 138%
O=C(Nc1ccc([N+](=O)[O-])cn1)c1cc([N+](=O)[O-])ccc1Cl [Example 24, N-(5-Nitropyridin-2-yl)-(2-chloro-5-nitrophenyl)carboxamide]				143	activity at 1 µM (24 hr): 144%; activity at 0.001 µM (24 hr): 112%; activity at 0.01 µM (24 hr): 121%
O=C(Nc1cccc([N+](=O)[O-])c1)c1cc([N+](=O)[O-])ccc1Cl [Example 25, N-(3-Nitrophenyl)-(2-chloro-5-nitrophenyl)carboxamide]				156	activity at 0.001 µM (24 hr): 113%; activity at 0.01 µM (24 hr): 118%
O=C(Nc1cc([N+](=O)[O-])ccc1Cl)c1cc([N+](=O)[O-])ccc1Cl [Example 28, N-(2-Chloro-5-nitrophenyl)-(2-chloro-5-nitrophenyl)carboxamide]				120	activity at 1 µM (24 hr): 108%
O=C(Nc1cccc(C(=O)N2CCCC2)c1)c1cc([N+](=O)[O-])ccc1Cl [Example 31]					Facilitating activity to produce leptin (100 nm, 24 hr): 116.9%
O=C(Nc1nc(-c2cccs2)cs1)c1cc([N+](=O)[O-])ccc1Cl [Example 36, N-[4-(2-Thienyl)thiazol-2-yl)-(2-chloro-5-nitrophenyl)carboxamide]			120		
O=C(Nc1nc(-c2ccc3ccccc3c2)cs1)c1cc([N+](=O)[O-])ccc1Cl [Example 42, N-[4-(2-Naphthyl)thiazol-2-yl)-(2-chloro-5-nitrophenyl)carboxamide]	127				
O=C(Nc1nc(-c2ccc(Cl)c(Cl)c2)cs1)c1cc([N+](=O)[O-])ccc1Cl [Example 43, N-[4-(3,4-Dichlorophenyl)thiazol-2-yl]-(2-chloro-5-nitrophenyl)carboxamide]	111		112		
O=C(Nc1ccncc1)c1cc([N+](=O)[O-])ccc1Cl [Example 49, N-(4-Pyridyl)-(2-chloro-5-nitrophenyl)carboxamide]	121	131	133		
O=C(Nc1cnc2ccccc2c1)c1cc([N+](=O)[O-])ccc1Cl [Example 55, N-(3-Quinolinyl)-(2-chloro-5-nitrophenyl)carboxamide]		115	113		activity at 0.001 µM (24 h): 116%
O=C(Nc1ccc(Cl)nc1)c1cc([N+](=O)[O-])ccc1Cl [Example 62, N-(6-Chloropyridin-3-yl)-(2-chloro-5-nitrophenyl)carboxamide]		115	132		activity at 0.001 µM (24 h): 119%
O=C(Nc1ccc(NC(=O)c2cc([N+](=O)[O-])ccc2Cl)nc1)c1cc([N+](=O)[O-])ccc1Cl [Example 64, 2,5-bis(2-Chloro-5-nitrobenzoylamino)pyridine]				119	activity at 0.001 µM (24 hr): 110%; activity at 0.01 µM (24 hr): 112%
O=C(Nc1nc2cc(Cl)ccc2o1)c1cc([N+](=O)[O-])ccc1Cl [Example 75, N-(5-Chlorobenzoxazol-2-yl)-(2-chloro-5-nitrophenyl)carboxamide]			118		
O=C(Nc1ncc(Br)cn1)c1cc([N+](=O)[O-])ccc1Cl [Example 77, N-(5-Bromopyrimidin-2-yl)-(2-chloro-5-nitrophenyl)carboxamide]	113	110	130		activity at 0.001 µM (24 h): 108%
O=C(Nc1nc(Cl)cc(Cl)n1)c1cc([N+](=O)[O-])ccc1Cl [Example 83, N-(4,6-Dichloropyrimidin-2-yl)-(2-chloro-5-nitrophenyl)carboxamide]			126		
